Source: patent publication EP0014981A2, “Medicaments and pharmaceutical compositions with cytostatic activity” (Henkel Kommanditgesellschaft auf Aktien, priority 1979, dated 1980)

Key:
Format in all cases: in vivo, Mäuse
[1] = Tolerated maximum daily dose in mice, i.p. aqueous solutions; conditions: clear toxic effects only at higher doses
Description: Im Tierexperiment hat sich die Verwendung von frisch hergestellten, wäßrigen Lösungen, die i.p. gegeben werden, als zweckmäßig erwiesen. Von α- beziehungsweise β-Triglycidylisocyanurat kann bei Mäusen die Maximaldosis p.die 100 mg/kg Maus betragen. Deutliche toxische Wirkungen treten erst bei höherer Dosierung auf. Als optimale Dosierung hat sich in vielen Fällen eine Gabe von 30 mg bis 60 mg/kg Maus während einer Applikationsdauer von 1 bis 9 Tagen bewährt.

[2] = test system: gegenüber Cyclophosphamid (NSC 26271) resistente Leukämieform von P 388; assay: Cyclophosphamide-resistant P 388 leukaemia in mice, survival; conditions: 10 mice
Description: (§1) Die nachfolgenden Beispiele wurden durchgeführt nach Testvorschriften des National Cancer Institute Bethesda, Maryland 200014, veröffentlicht in "Cancer Chemotherapy Reports" Part. 3, Sept. '72, Vol. 3, Nr. 2. Als Wirksubstanz wurde verwendet α-Triglycidylisocyanurat (F 106° C) sowie β-Triglycidylisocyanurat (F 158 °C), beide mit 16,1 % Epoxidsauerstoffgehalt (Herstellung siehe US-PS 3,337,509).
(§2) Alle wäßrigen 1 %igen Injektionslösungen wurden unmittelbar vor der Applikation frisch hergestellt.
Eine gegenüber Cyclophosphamid (NSC 26271) resistente Leukämieform von P 388 wurde mit α-T3I und Cyclophosphamid behandelt. Jede Gruppe bestand aus 10 Mäusen.

Ependymoblastom = assay: Intracerebrally implanted ependymoblastoma in mice, survival; conditions: 40 mg/kg p.die, 9 days
Description: as §1, §2
Bei einer Testgruppe von Mäusen wurde durch intracerebra1 mm^3 eines Gewebes von Ependymoblastom implantiert. Die mittlere Überlebensdauer bei der Kontrollgruppe be- trug 19,3 Tage.

Sarcom 180 = assay: Sarcoma 180 i.p. in mice, survival; conditions: 30 mg/kg i.p., days 1 to 9
Description: as §1, §2
Durch i.p-Verabfolgung von 10^6 Zellen pro Maus wurde das Sarcom 180 gesetzt. Die unbehandelte Kontrollgrüppe hatte eine mittlere überlebenszeit von 20, 2 Tagen.

Coloncarcinom 38 = assay: Colon carcinoma 38 s.c. in mice, tumour weight; conditions: after 20 days (control 512 mg/Maus)
Description: as §1, §2
A)Gruppen von 10 Mäusen wurde etwa 1 mm^3 Coloncarcinom 38 s.c. implantiert. Das mittlere Turaorgetuicht betrug bei der unbehandelten Kontrollgruppe nach 20 Tagen: 512mg/Maus.

[3] = test system: Tumorart P 388 (Leucämie); assay: Leukaemia P 388 in mice, NCI protocol 1 200, survival; conditions: for Heilung: % of animals
Description: as §1, §2
Bei Mäusen wurde gemäß Protokoll 1 200 (Seite 9 l.c.) die Tumorart P 388 (Leucämie) i.p. mit 10^6 Zellen/Maus ge- setzt. Die unbehandelten Tiere hatten eine mittlere Überlebensdauer von 10,5 Tagen.
Bei Mäusen wurde gemäß Protokoll 1 200 (Seite 9 1.c.) die Tumorart P 388 Leucämie i.p. mit 10^6 Zellen/Maus gesetzt. Die unbehandelten Tiere hatten eine mittlere überlebensdauer von 10 Tagen.

Coloncarcinom 26 = assay: Colon carcinoma 26 i.p. in mice, survival; conditions: for Mäuse lebend, 60 Tage / alle Mäuse lebend (day up to which): groups of 10 mice
Description: as §1, §2
8) Durch i.p. Inplantation (1 mm^3 Coloncarcinom 26) wurde bei Gruppen von jeweils 10 Mäusen ein Ca gesetzt Die Behandlung erfolgte durch i.p.-Verabfolgung von α-TGI. In der nachfolgenden Tabelle III sind die Ergebnisse in Abhängigkeit der jeweils am 1., 5. und 9. Tag applizierten Menge wiedergegeben.

Lungencarcinom (Lewis) = assay: Lewis lung carcinoma in mice, NCI protocol 1.400, inhibition of metastases; conditions: days 1 to 11, after 23 days
Description: as §1, §2
Gemäß Protokoll 1.400 (Seite 13 1.c.) wurden bei Mäusen Zellen, s.c. eines 1 mm^3 Stücks Lungencarcinom (Lewis) implantiert. Dann erfolgte vom 1. bis 11. Tag i.p. Verabfolgung von 40 mg/kg p.die an α-TGI bzw. 90 mg/kg p.die an β -TGI.

Melanom B16 = assay: Melanoma B 16 in mice, NCI instruction 1.300, survival; conditions: days 1 to 9
Description: as §1, §2
bei Mäusen wurde gemäß Anweisung 1.300 das 1/10 Homogenzt teranom B 16 jeweils 0,5 ml pro Maus i.p, verabfolgt gergl. S. 11 1,c.).
Die Kontrollgruppe hatte eine mittlere Überlebenszeit von 15,3 Tagen (m.s.t.).
Behandelte Gruppen erhielten vom 1. bis 9. Tag verschiedene Mengen α-TGI i.p. In der nachfolgenden Tabelle II ist die mittlere überlebensdauer und T/C in Ahhängigkeit der p.die gegebenen Menge Wirkstoff wiedergegeben.

Leukämie L 1210 = assay: Leukaemia L 1210 in mice, NCI protocol 1.100, survival; conditions: for Überlebende / ganze Gruppe, leukäm. M. / Überlebende / ganze Gruppe, Kontrollgruppe: after 30 days; for Überlebende / ganze Gruppe, Kontrollgruppe: control group
Description: as §1, §2
Bei Mäusen wurde gemäß Protokoll 1.100 (Seite 7 1.c.) Leukämie L 1210 durch i.p. Verabreichung von 0,1 ml verdünnter Erregerlösung entsprechend 10^5 Zellen erzeugt. Bei der Kontrollgruppe betrug die mittlere Überlebensdauer 8 Tage (m.s.t.).
B) Der Einfluß der Behandlungsplanung auf die therapeutische Wirksamkeit von α-TGI bei Tumor L 1210 nach 30 Tagen ist der nachfolgenden Tabelle I zu entnehmen.

[4] = 50 mg/kg p.die i.p., days 1 to 9
[5] = 50 mg/kg p.die i.p., days 1 to 9, group of 6 mice
[6] = 100 mg/kg p.die i.p., days 1 to 9

In the case of `O=c1n(CC2CO2)c(=O)n(CC2CO2)c(=O)n1CC1CO1` (single isomer, unassigned) [α-TGI, α-Triglycidylisocyanurat], the MTD ([1]; mouse, in vivo, ip, read-out: Maximaldosis p.die) is reported as 100 mg/kg/day, the “Mäuse überlebten 60 Tage” value ([2]; 40 mg/kg, days 1 to 9) is reported as “alle” and the T/C ([2]; 40 mg/kg, days 1 to 9) is reported as 478%. For the same molecule, the T/C (Ependymoblastom) was 165%, the T/C (Sarcom 180) was 183% and the “mittleres Tumorgewicht” value (Coloncarcinom 38; 50 mg/kg p.die on days 2, 9 and 16) was 183 mg pro Maus. The “mittleres Tumorgewicht” value (Coloncarcinom 38; 50 mg/kg p.die on days 2 and 9) was 153 mg pro Maus, the T/C ([3]; 25 mg/kg p.die, 9 doses) was 196% and the T/C ([3]; 50 mg/kg p.die i.p., 9 days) was 200%. For the same molecule, the Heilung ([3]; 50 mg/kg p.die, 9 days) was 17%, the “T/C, Verlängerungsrate (mittlere Lebenserwartung gegenüber der Kontrollgruppe)” value (from here on “T/C, Verlängerungsrate”) ([3]; 100 mg/kg p.die i.p., 9 days) was 285% and the “behandelte Mäuse lebten länger als 40 Tage (als geheilt anzusehen)” value ([3]; 100 mg/kg p.die i.p., 9 days, fraction of treated mice) was “Die Hälfte”. The “Mäuse lebend, 60 Tage” value (Coloncarcinom 26; 25 mg i.p. on days 1, 5 and 9) was 6 von 10, the “alle Mäuse lebend (day up to which)” value (Coloncarcinom 26; 25 mg i.p. on days 1, 5 and 9) was 25 Tage and the “Mäuse lebend, 60 Tage” value (Coloncarcinom 26; 50 mg i.p. on days 1, 5 and 9) was 60 Tage noch 10 Mäuse lebend. For the same molecule, the “Mäuse lebend, 60 Tage” value (Coloncarcinom 26; 100 mg i.p. on days 1, 5 and 9) was 4 Mäuse, the “alle Mäuse lebend (day up to which)” value (Coloncarcinom 26; 100 mg i.p. on days 1, 5 and 9) was 49 Tage and the “Hemmung an Metastasen gegenüber der Kontrollgruppe” value (Lungencarcinom (Lewis); 40 mg/kg p.die i.p.) was 92%. For the same molecule, the T/C (Melanom B16; 25 mg p.die i.p.) was 227%, the “m. s. t. (Tage)” value (Melanom B16; 25 mg p.die i.p.) was 36,0 Tage and the T/C (Melanom B16; 50 mg p.die i.p.) was 234%. For the same molecule, the “m. s. t. (Tage)” value (Melanom B16; 50 mg p.die i.p.) was 37,0 Tage, the T/C (Melanom B16; 12,5 mg p.die i.p.) was 188% and the “m. s. t. (Tage)” value (Melanom B16; 12,5 mg p.die i.p.) was 29,8 Tage. The “Überlebende / ganze Gruppe, leukäm. M.” value (Leukämie L 1210; 40 mg 9x i.p. (1.bis 9.Tag)) was 8/10, the “Überlebende / ganze Gruppe, Kontrollgruppe” value (Leukämie L 1210; 40 mg 9x i.p. (1.bis 9.Tag)) was 8/8 and the “Überlebende / ganze Gruppe, leukäm. M.” value (Leukämie L 1210; 50 mg 5x i.p. (1.bis 5.Tag)) was 5/10. The “Überlebende / ganze Gruppe, Kontrollgruppe” value (Leukämie L 1210; 50 mg 5x i.p. (1.bis 5.Tag)) was 7/8, the T/C (Leukämie L 1210; [4]) was 297% and the “mittlere Überlebensdauer” value (Leukämie L 1210; [4]) was 23,8 Tage. The “30 Tage erreichten” value (Leukämie L 1210; [5]) was 3 Mäuse and the Heilungsrate (Leukämie L 1210; [5]) was ~50%.
`O=c1n(CC2CO2)c(=O)n(CC2CO2)c(=O)n1CC1CO1` (single isomer, unassigned) [β-TGI, β-Triglycidylisocyanurat] showed a Maximaldosis p.die [1] of 100 mg/kg Maus, a T/C ([3]; 25 mg/kg p.die, 9 doses) of 174% and a T/C ([3]; 50 mg/kg p.die i.p., 9 days) of 179%. For the same molecule, the Heilung ([3]; 50 mg/kg p.die, 9 days) was 17%, the “T/C, Verlängerungsrate” value ([3]; 100 mg/kg p.die i.p., 9 days) was 228% and the Heilung ([3]; 100 mg/kg p.die, 9 days) was 17%. The “Hemmung an Metastasen gegenüber der Kontrollgruppe” value (Lungencarcinom (Lewis); 90 mg/kg p.die i.p.) was 87%, the T/C (Leukämie L 1210; [4]) was 203% and the “mittlere Überlebensdauer” value (Leukämie L 1210; [4]) was 16,3 Tage. The T/C (Leukämie L 1210; [6]) was 315% and the “mittlere Überlebensdauer” value (Leukämie L 1210; [6]) was 25,2 Tage.
For `O=P1(N(CCCl)CCCl)NCCCO1` (stereo not shown) [Cyclophosphamid, reference compound], the T/C ([2]; 180 mg/kg) was 150% and the “Überlebenszeit der behandelten Mäuse” value ([2]; 180 mg/kg) was < 30 Tage.
For `O=c1[nH]cc(F)c(=O)[nH]1` [Fluoruracil, reference compound], the “mittlere überlebensdauer” value (Coloncarcinom 26; positive comparison, dose not given, 10 mice) was 55 Tage and the “Mäuse lebend am 60. Tag” value (Coloncarcinom 26; positive comparison, dose not given, of 10 mice) was 2 Mäuse.
With `CC1(Cn2c(=O)n(CC3(C)CO3)c(=O)n(CC3(C)CO3)c2=O)CO1` (stereo not shown) [Tri-(2-methylglycidyl)-isocyanurat] the T/C ([3]; 50 mg/kg p.die i.p., 9 days) was 150% and the “T/C, Verlängerungsrate” value ([3]; 100 mg/kg p.die i.p., 9 days) was 170%.
